Measured values taken from patent US10633389B2, “CARM1 inhibitors and uses thereof” (Epizyme, Inc., priority 2013, dated 2020).

Assays:
human CARM1 (PRMT4) = human CARM1 (PRMT4) (Homo sapiens (Human), UniProt Q86X55); test: CARM1 enzyme assay on peptide substrate (3H-SAM Flashplate); conditions: Biochemical potencies, read-out: Biochem IC50
Description: S-adenosylmethionine (SAM), S-adenosylhomocysteine (SAH), bicine, Tween20, dimethylsulfoxide (DMSO), bovine skin gelatin (BSG), sodium butyrate and Tris(2-carboxyethyl)phosphine hydrochloride solution (TCEP) were purchased from Sigma-Aldrich at the highest level of purity possible. ^3H-SAM was purchase from American Radiolabeled Chemicals with a specific activity of 80 Ci/mmol. 384-well streptavidin Flashplates were purchased from PerkinElmer.
Peptide representative of human histone H3 residues 16-30 was synthesized with an N-terminal linker-affinity tag motif and a C-terminal amide cap by 21st Century Biochemicals. […] The sequence was Biot-Ahx-[…]-amide and contained a monomethylated arginine at position 26 (SEQ ID NO.:1).
The gene sequence encoding isoform 1 containing a deletion of amino acids 539-561 was amplified subsequently and subcloned into pFastBacMam (Viva Biotech).
Recombinant baculovirus were generated according to Bac-to-Bac kit instructions (Life Technologies). Protein over-expression was accomplished by infecting exponentially growing HEK 293F cell culture at 1.3×10^6 cell/ml with virus (MOI=10) in the presence of 8 mM sodium butyrate. Infections were carried out at 37° C. for 48 hours, harvested by centrifugation, and stored at −80° C. for purification.
Expressed full-length human Flag- and His-tagged CARM1 protein was purified from cell paste by anti-flag M2 affinity chromatography with resin equilibrated with buffer containing 20 mM Tris, 150 mM NaC, 5% glycerol, pH 7.8. Column was washed with 500 mM NaCl in buffer A and Flag-CARM1-His was eluted with 200 ug/ml FLAG peptide in buffer A. Pooled fractions were dialyzed in 20 mM Tris, 150 mM NaCl, 5% glycerol and 1 mM DTT, pH 7.8.
The assays were all performed in a buffer consisting of 20 mM Bicine (pH=7.6), 1 mM TCEP, 0.005% BSG, and 0.002% Tween 20, prepared on the day of use. Compounds in 100% DMSO (1 ul) were spotted into a polypropylene 384-well V-bottom plates (Greiner) using a Platemate Plus outfitted with a 384-channel head (Thermo Scientific). DMSO (1 ul) was added to Columns 11, 12, 23, 24, rows A-H for the maximum signal control and 1 ul of SAH, a known product and inhibitor of CARM1, was added to columns 11, 12, 23, 24, rows I-P for the minimum signal control. A cocktail (40 ul) containing the CARM1 enzyme was added by Multidrop Combi (Thermo-Fisher). The compounds were allowed to incubate with CARM1 for 30 min at room temperature, then a cocktail (10 ul) containing ^3H-SAM and peptide was added to initiate the reaction (final volume=51 ul). The final concentrations of the components were as follows: CARM1 was 0.25 nM, ^3H-SAM was 30 nM, peptide was 250 nM, SAH in the minimum signal control wells was 1 mM, and the DMSO concentration was 2%. The assays were stopped by the addition of non-radiolabeled SAM (10 ul) to a final concentration of 300 uM, which dilutes the ^3H-SAM to a level where its incorporation into the peptide substrate is no longer detectable. 50 ul of the reaction in the 384-well polypropylene plate was then transferred to a 384-well Flashplate and the biotinylated peptides were allowed to bind to the streptavidin surface for at least 1 hour before being washed once with 0.1% Tween20 in a Biotek ELx405 plate washer. The plates were then read in a PerkinElmer TopCount plate reader to measure the quantity of ^3H-labeled peptide bound to the Flashplate surface, measured as disintegrations per minute (dpm) or alternatively, referred to as counts per minute (cpm).
The Hill Coefficient normally allowed to float but may also be fixed at 1 in a 3-parameter fit.

[1] = tested on: asymmetric di-methyl PABP1 in RKO cells; test: RKO methylation assay, In Cell Western (ICW) for asymmetric di-methyl PABP1; type: cell-based; conditions: Homo sapiens, RKO, Cellular potencies, ICW PABP1me2a
Procedure, shortened: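 In-cell Western on fixed RKO cells after 48 h compound exposure: anti-asymmetric di-methyl PABP1 signal at 800 nm over DRAQ5 DNA signal at 700 nm. Percent inhibition set between DMSO wells and wells with 20 μM reference compound; IC50 curves fitted in triplicate.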

Chain of human CARM1 (PRMT4) (Q86X55 other isoform, or with tags, fused parts or gaps isoform Q86X55-1): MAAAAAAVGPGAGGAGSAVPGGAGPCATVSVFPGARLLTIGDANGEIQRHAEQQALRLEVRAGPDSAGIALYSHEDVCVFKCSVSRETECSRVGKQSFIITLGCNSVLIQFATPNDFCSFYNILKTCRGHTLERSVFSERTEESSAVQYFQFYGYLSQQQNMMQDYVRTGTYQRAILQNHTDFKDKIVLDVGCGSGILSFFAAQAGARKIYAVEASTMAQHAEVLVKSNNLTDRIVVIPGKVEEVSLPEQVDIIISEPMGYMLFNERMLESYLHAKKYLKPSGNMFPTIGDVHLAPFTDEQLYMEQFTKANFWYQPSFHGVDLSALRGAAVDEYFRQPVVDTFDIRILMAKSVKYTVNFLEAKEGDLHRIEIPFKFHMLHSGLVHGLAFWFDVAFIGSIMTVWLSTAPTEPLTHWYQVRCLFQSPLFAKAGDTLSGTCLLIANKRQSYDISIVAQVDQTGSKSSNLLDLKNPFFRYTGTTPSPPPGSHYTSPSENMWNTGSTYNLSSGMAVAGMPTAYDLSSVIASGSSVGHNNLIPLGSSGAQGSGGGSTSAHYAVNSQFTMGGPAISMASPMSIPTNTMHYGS

## CNC[C@@H](O)COc1cccc(-c2nc(NCC3CCOCC3)cc(-c3cn(S(C)(=O)=O)c4ncncc34)n2)c1 [Example 686-1a]
Human CARM1 (PRMT4)
  IC50: 0.1 to 1 µM
[1]
  IC50: ≥ 20 µM

## CNCC(O)COc1cccc(-c2nc(NC3CCOCC3)c(C)c(N3CCNC(C)(C)C3)n2)c1 (stereo not shown) [Example 664-1a]
Human CARM1 (PRMT4)
  IC50: 0.1 to 1 µM
[1]
  IC50: ≥ 20 µM

## CNCC(O)COc1cccc(-c2nc(N3CCN(CC(F)F)CC3)cc(N(C)C3CCOCC3)n2)c1 (stereo not shown) [Example 518-1a]
Human CARM1 (PRMT4)
  IC50: 0.1 to 1 µM
[1]
  IC50: 5 to 10 µM

## CNCC(O)COc1cccc(-c2nc(N3CCC(O)(CCO)CC3)cc(N(C)C3CCOCC3)n2)c1 (stereo not shown) [Example 591-1a]
Human CARM1 (PRMT4)
  IC50: 0.1 to 1 µM
[1]
  IC50: 10 to 20 µM

## CNCC(O)COc1ccc(C)c(-c2nc(NC3CCOCC3)c(C)c(-c3c(C)noc3C)n2)c1 (stereo not shown) [Example 123-3]
Human CARM1 (PRMT4)
  IC50: 0.1 to 1 µM
[1]
  IC50: 10 to 20 µM

## CNCC(O)COc1cccc(-c2nc(N3CCOCC3)cc(N(C3CCOCC3)C3CC3)n2)c1 (stereo not shown) [Example 601-1a]
Human CARM1 (PRMT4)
  IC50: 0.1 to 1 µM
[1]
  IC50: 10 to 20 µM

## CNCC(O)COc1cccc(-c2nc(N3CCN(CC(F)(F)F)CC3)cc(N(C)C3CCOCC3)n2)c1 (stereo not shown) [Example 586-1a]
Human CARM1 (PRMT4)
  IC50: 0.1 to 1 µM
[1]
  IC50: 10 to 20 µM

## CNCC(O)COc1cccc(-c2nc(N[C@@H]3CCOC3)c(C)c(N3CCn4cnnc4C3)n2)c1 (stereo partly shown) [Example 418-1a]
Human CARM1 (PRMT4)
  IC50: 0.1 to 1 µM
[1]
  IC50: 10 to 20 µM

## CNCC(O)COc1cccc(-c2nc(NCC3CCNCC3)cc(-c3ccncc3)n2)c1 (stereo not shown) [Example 662-1a]
Human CARM1 (PRMT4)
  IC50: 0.1 to 1 µM
[1]
  IC50: ≥ 20 µM

## CNCC(O)COc1cc(-c2nc(NC3CCOC(C)C3)c(C)c(-c3c(C)noc3C)n2)ccc1F (stereo not shown) [Example 51-3]
Human CARM1 (PRMT4)
  IC50: 0.1 to 1 µM
[1]
  IC50: ≥ 20 µM

## CCN(c1nc(-c2cccc(OCC(O)CNC)c2)nc(N2CCOCC2)c1C)[C@@H]1CCOC1 (stereo partly shown) [Example 375-1a]
Human CARM1 (PRMT4)
  IC50: 1 to 3 µM
[1]
  IC50: 10 to 20 µM

## CNCC(O)COc1cccc(-c2nc(NC3CCOCC3)cc(N(C3CC3)[C@@H]3CCOC3)n2)c1 (stereo partly shown) [Example 372-1a]
Human CARM1 (PRMT4)
  IC50: 1 to 3 µM
[1]
  IC50: 10 to 20 µM

## CNCC(O)COc1cccc(-c2nc(NC3CCOCC3)c(C)c(-c3c(C)nn(C)c3C)n2)c1 (stereo not shown) [Example 678-1a]
Human CARM1 (PRMT4)
  IC50: 0.1 to 1 µM
[1]
  IC50: ≥ 20 µM

## CNCC(O)COc1cccc(-c2nc(N[C@H]3C[C@H](C(=O)O)C3)c(C)c(-c3c(C)noc3C)n2)c1 (stereo partly shown) [Example 222-1a]
Human CARM1 (PRMT4)
  IC50: 0.1 to 1 µM
[1]
  IC50: 10 to 20 µM

## CNCC(O)COc1cccc(-c2nc(N[C@@H]3CCOC3)c(C)c(N3CCNC(C(F)(F)F)C3)n2)c1 (stereo partly shown) [Example 428-1a]
Human CARM1 (PRMT4)
  IC50: 0.1 to 1 µM
[1]
  IC50: 10 to 20 µM

## CNCC(O)COc1cccc(-c2nc(N[C@@H]3CCOC3)c(C)c(-c3ccnc(OCCOC)c3)n2)c1 (stereo partly shown) [Example 406-1a]
Human CARM1 (PRMT4)
  IC50: 0.1 to 1 µM
[1]
  IC50: 5 to 10 µM

## CNCC(O)COc1cccc(-c2nc(NC3CCOCC3)c(C)c(N3CCN(C4CC4)CC3)n2)c1 (stereo not shown) [Example 663-1a]
Human CARM1 (PRMT4)
  IC50: 0.1 to 1 µM
[1]
  IC50: ≥ 20 µM

## CNCC(O)COc1cccc(-c2nc(N[C@@H]3CCOC3)c(C)c(N3CCC(O)CC3)n2)c1 (stereo partly shown) [Example 361-1a]
Human CARM1 (PRMT4)
  IC50: 0.1 to 1 µM
[1]
  IC50: 10 to 20 µM

## CNCC(O)COc1cc(-c2nc(NC3CCOCC3)c(C)c(-c3c(C)noc3C)n2)ccc1F (stereo not shown) [Example 52-3]
Human CARM1 (PRMT4)
  IC50: 0.1 to 1 µM
[1]
  IC50: ≥ 20 µM

## CNCC(O)COc1cccc(-c2nc(N[C@@H]3CCOC3)c(C)c(-c3cnn(CC(F)(F)F)c3)n2)c1 (stereo partly shown) [Example 414-1a]
Human CARM1 (PRMT4)
  IC50: 0.1 to 1 µM
[1]
  IC50: 10 to 20 µM

## CNCC(O)COc1cccc(-c2nc(N3CCN(C(C)=O)[C@@H](C)C3)c(C)c(N(C)[C@@H]3CCOC3)n2)c1 (stereo partly shown) [Example 410-1a]
Human CARM1 (PRMT4)
  IC50: 0.1 to 1 µM
[1]
  IC50: 5 to 10 µM

## CNCC(O)COc1cccc(-c2nc(NC3CCOCC3)c(C)c(-c3c(C)noc3C)n2)c1Cl (stereo not shown) [Example 79-3]
Human CARM1 (PRMT4)
  IC50: 3 to 10 µM
[1]
  IC50: ≥ 20 µM

## CNCC(O)COc1cccc(-c2nc(N[C@@H]3CCOC3)c(C)c(N3CCC[C@@H]3C(=O)NC)n2)c1 (stereo partly shown) [Example 450-1a]
Human CARM1 (PRMT4)
  IC50: 0.1 to 1 µM
[1]
  IC50: 10 to 20 µM

## CNCC(O)COc1cccc(-c2nc(-c3ccncc3)cc(N(C)C3CCN(C)CC3)n2)c1 (stereo not shown) [Example 674-1a]
Human CARM1 (PRMT4)
  IC50: 0.1 to 1 µM
[1]
  IC50: ≥ 20 µM

## CNCC(O)COc1cccc(-c2nc(-c3cccc4ncccc34)cc(N(CCOC)CCOC)n2)c1 (stereo not shown) [Example 639-1a]
Human CARM1 (PRMT4)
  IC50: 0.1 to 1 µM
[1]
  IC50: ≥ 20 µM

## CNCC(O)COc1cccc(-c2nc(N3CCN(C(=O)OC)CC3)cc(N(C)C3CCOCC3)n2)c1 (stereo not shown) [Example 585-1a]
Human CARM1 (PRMT4)
  IC50: 0.1 to 1 µM
[1]
  IC50: 10 to 20 µM

## CNCC(O)COc1cccc(-c2nc(-c3ncc[nH]3)cc(N(C)C3CCOCC3)n2)c1 (stereo not shown) [Example 550-1a]
Human CARM1 (PRMT4)
  IC50: 0.1 to 1 µM
[1]
  IC50: 10 to 20 µM

## CNCC(O)COc1cccc(-c2nc(-c3cnn(CC(C)C)c3)cc(N(CCOC)CCOC)n2)c1 (stereo not shown) [Example 631-1a]
Human CARM1 (PRMT4)
  IC50: 1 to 3 µM
[1]
  IC50: ≥ 20 µM

## CCS(=O)(=O)N1CCN(c2nc(-c3cccc(OCC(O)CNC)c3)nc(NC3CCOCC3)c2C)CC1 (stereo not shown) [Example 668-1a]
Human CARM1 (PRMT4)
  IC50: 0.1 to 1 µM
[1]
  IC50: ≥ 20 µM

## CNCC(O)COc1cccc(-c2nc(NC3CCOCC3)c(C)c(N(C3CCOCC3)C3CC3)n2)c1 (stereo not shown) [Example 607-1a]
Human CARM1 (PRMT4)
  IC50: 3 to 10 µM
[1]
  IC50: 10 to 20 µM

## CCN1CCN(c2nc(-c3cccc(OCC(O)CNC)c3)nc(NC3CCOCC3)c2C)CC1 (stereo not shown) [Example 641-1a]
Human CARM1 (PRMT4)
  IC50: 0.1 to 1 µM
[1]
  IC50: ≥ 20 µM

## CNCC(O)COc1cccc(-c2nc(N[C@@H]3CCOC3)c(C)c(-c3cccnc3N)n2)c1 (stereo partly shown) [Example 416-1a]
Human CARM1 (PRMT4)
  IC50: 3 to 10 µM
[1]
  IC50: 10 to 20 µM

## CNCC(O)COc1cccc(-c2nc(NC3COC3)cc(-c3c(C)noc3C)n2)c1 (stereo not shown) [Example 22-1a]
Human CARM1 (PRMT4)
  IC50: 0.1 to 1 µM
[1]
  IC50: 10 to 20 µM

## CNCC(O)COc1cccc(-c2nc(NC3CCN(C(=O)OC)CC3)c(C)c(-c3c(C)noc3C)n2)c1Cl (stereo not shown) [Example 107-3]
Human CARM1 (PRMT4)
  IC50: 3 to 10 µM
[1]
  IC50: ≥ 20 µM

## CNCC(O)COc1cccc(-c2nc(-c3c(C)noc3C)c(C)c(N3CCO[C@H](CN(C)C(=O)N(C)C)C3)n2)c1 (stereo partly shown) [Example 128-1a]
Human CARM1 (PRMT4)
  IC50: 0.1 to 1 µM
[1]
  IC50: 5 to 10 µM

## CNCC(O)COc1cccc(-c2nc(NCC(F)(F)F)cc(-c3cncnc3)n2)c1 (stereo not shown) [Example 626-1a]
Human CARM1 (PRMT4)
  IC50: 1 to 3 µM
[1]
  IC50: ≥ 20 µM

## CNCC(O)COc1cccc(-c2nc(N[C@@H]3CCOC3)c(C)c(N3CCN(C(C)=O)C4(CC4)C3)n2)c1 (stereo partly shown) [Example 423-1a]
Human CARM1 (PRMT4)
  IC50: 0.1 to 1 µM
[1]
  IC50: 10 to 20 µM

## CNCC(O)COc1cccc(-c2nc(NC3CCOC3)c(C)c(N3CCC4(CCCO4)CC3)n2)c1 (stereo not shown) [Example 420-1a]
Human CARM1 (PRMT4)
  IC50: 0.1 to 1 µM
[1]
  IC50: 5 to 10 µM
